# Measurements: patent publication US12612368B2 (Remedy Plan, Inc., priority 2019, dated 2026)
# Where two headings read alike, the source gives them in different places.
# Assays:
# MV-4-11 cells = assay: Cell viability in MV-4-11 cells (CellTiter Glo2); type: cell-based; conditions: Homo sapiens, MV4-11, 96 h, 8-point dose response, 4 days
# Experimental: Approximately 10,000 MV-4-11 cells per well of a 96-well plate were treated with DMSO (no drug control) or each compound in Tables E1 and E2 in an 8-point dose response for 4 days, Cell viability was measured using CellTiter Glo2. The ICse of each compound was determined using CDD Vault.
# NAMPT = molecular target: T1, NAMPT (Homo sapiens, UniProt P43490); assay: NAMPT Activity Assay (Abcam #ab221819); type: biochemical; conditions: purified NAMPT, two-step reaction, OD450 nm; percent inhibition vs no drug; compound concentration not stated
# T1 construct: purchased Abcam ab221819
# [1] = CellTiter Glo2 (Table E2), read-out: MV-4-11 Cell Viability, MV-4-11 IC50
# [2] = CellTiter Glo2 (Table E1), read-out: MV-4-11 IC50
# T1 sequence (P43490 whole entry): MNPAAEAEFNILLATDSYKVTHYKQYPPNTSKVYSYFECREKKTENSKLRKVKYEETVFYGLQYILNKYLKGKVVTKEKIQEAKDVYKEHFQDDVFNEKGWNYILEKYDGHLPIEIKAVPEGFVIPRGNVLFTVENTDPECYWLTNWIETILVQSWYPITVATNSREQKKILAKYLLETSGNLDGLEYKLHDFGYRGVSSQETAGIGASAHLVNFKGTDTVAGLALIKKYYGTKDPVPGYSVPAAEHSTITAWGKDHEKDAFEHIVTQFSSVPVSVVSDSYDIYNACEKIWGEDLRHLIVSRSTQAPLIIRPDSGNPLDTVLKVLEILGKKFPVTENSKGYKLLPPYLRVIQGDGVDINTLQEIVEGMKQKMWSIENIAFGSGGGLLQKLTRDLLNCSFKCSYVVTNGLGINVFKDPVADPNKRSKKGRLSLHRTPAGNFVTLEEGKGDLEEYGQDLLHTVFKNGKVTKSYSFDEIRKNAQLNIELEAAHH
Structure (SMILES),IC50 (MV-4-11 cells; [1]),NAMPT Inhibition Code (NAMPT),IC50 (MV-4-11 cells; [2])
CCC(=O)N(C)c1ccc(-c2ccc(C(=O)NCc3ccc(C)nc3)cn2)cc1C [Compound I-450],7630 nM,B (B = ≥33 to <66% inhibition),–
"CC(=O)N(CCNC(=O)OC(C)(C)C)c1ccc(-c2ccc(C(=O)NCc3cccnc3)cn2)cc1 [Compound I-448, tert-butyl N-[2-[N-acetyl-4-[5-(3-pyridylmethylcarbamoyl)-2-pyridyl]anilino]ethyl]carbamate]",–,A (A = <33% inhibition),691 nM
"CCC(=O)N(C)c1ccc(-c2ccc(C(=O)NCc3ccc(F)nc3C)cn2)cc1 [Compound I-390, N-[(6-fluoro-2-methyl-3-pyridyl)methyl]-6-[4-[methyl(propanoyl)amino]phenyl]pyridine-3-carboxamide]",–,A (A = <33% inhibition),4260 nM
"CC(=O)N(CCC(F)(F)F)c1ccc(-c2ccc(C(=O)NCc3cccnc3)cn2)cc1 [Compound I-482, 6-[4-[Acetyl(3,3,3-trifluoropropyl)amino]phenyl]-N-(3-pyridylmethyl)pyridine-3-carboxamide]",226 nM,B (B = ≥33 to <66% inhibition),–
"CC(C)CN(CC(C)C)c1ccc(-c2ccc(C(=O)NCc3cccnc3)cc2)cc1 [Compound I-406, 4-[4-(diisobutylamino)phenyl]-N-(3-pyridylmethyl)benzamide]",–,B (B = ≥33 to <66% inhibition),817 nM
CC(=O)N(CC(C)C)c1ccc(-c2ccc(C(=O)NCc3cccnc3)cn2)cc1 [Compound I-404],–,B (B = ≥33 to <66% inhibition),32 nM
"CCC(=O)N(C)c1ccc(-c2ccc(C(=O)NCc3ccc(Cl)nc3)cn2)cc1 [Compound I-396, N-[(6-chloro-3-pyridyl)methyl]-6-[4-[methyl(propanoyl)amino]phenyl]pyridine-3-carboxamide]",–,C (C = ≥66% inhibition),6560 nM
"CC(=O)N(CC(C)C)c1ccc(-c2ccc(C(=O)NCc3cccnc3C)cn2)cc1Cl [Compound I-459, 6-[4-[acetyl(isobutyl)amino]-3-chloro-phenyl]-N-[(2-methyl-3-pyridyl)methyl]pyridine-3-carboxamide]",1510 nM,A (A = <33% inhibition),–
"CC(=O)N(CC1COC1)c1ccc(-c2ccc(C(=O)NCc3cccnc3)cn2)cc1 [Compound I-447, 6-[4-[acetyl(oxetan-3-ylmethyl)amino]phenyl]-N-(3-pyridylmethyl)pyridine-3-carboxamide]",493 nM,A (A = <33% inhibition),–
"COC(=O)NCCN(C(C)=O)c1ccc(-c2ccc(C(=O)NCc3cccnc3)cn2)cc1 [Compound I-466, Methyl N-[2-[N-acetyl-4-[5-(3-pyridylmethylcarbamoyl)-2-pyridyl]anilino]ethyl]carbamate]",871 nM,A (A = <33% inhibition),–
"CC(=O)N(CC(C)C)c1ccc(-c2ccc(C(=O)NCc3cccnc3C)cn2)cc1 [Compound I-467, 6-[4-[Acetyl(isobutyl)amino]phenyl]-N-[(2-methyl-3-pyridyl)methyl]pyridine-3-carboxamide]",4340 nM,A (A = <33% inhibition),–
"CCC(=O)N(C)c1ccc(-c2ccc(C(=O)NCc3cccnc3)cn2)cc1 [Compound I-331, 6-[4-[Methyl(propanoyl)amino]phenyl]-N-(3-pyridylmethyl)pyridine-3-carboxamide]",436 nM,A (A = <33% inhibition),–
"CCCCN(C(C)=O)c1ccc(-c2ccc(C(=O)NCc3cccnc3)cn2)cc1 [Compound I-411, 6-[4-[acetyl(butyl)amino]phenyl]-N-(3-pyridylmethyl)pyridine-3-carboxamide]",–,B (B = ≥33 to <66% inhibition),125 nM
"CC(C)CN(C(=O)C(F)F)c1ccc(-c2ccc(C(=O)NCc3cccnc3)cn2)cc1 [Compound I-468, 6-[4-[(2,2-Difluoroacetyl)-isobutyl-amino]phenyl]-N-(3-pyridylmethyl)pyridine-3-carboxamide]",33.3 nM,B (B = ≥33 to <66% inhibition),–
"CCCN(C(C)=O)c1ccc(-c2ccc(C(=O)NCc3cccnc3C)cn2)cc1Cl [Compound I-458, 6-[4-[acetyl(propyl)amino]-3-chloro-phenyl]-N-[(2-methyl-3-pyridyl)methyl]pyridine-3-carboxamide]",1710 nM,A (A = <33% inhibition),–

# Other lines, results leading:
IC50 (MV-4-11 cells; [1]),NAMPT Inhibition Code (NAMPT),IC50 (MV-4-11 cells; [2]),Structure (SMILES)
2.39 nM,C (C = ≥66% inhibition),–,"CC(=O)N(c1ccc(-c2ccc(C(=O)NCc3cccnc3)cn2)cc1Cl)C(C)C [Compound I-596, 6-[4-[Acetyl(isopropyl)amino]-3-chloro-phenyl]-N-(3-pyridylmethyl)pyridine-3-carboxamide]"
1340 nM,A (A = <33% inhibition),–,"CC(=O)N(CC1CC(F)(F)C1)c1ccc(-c2ccc(C(=O)NCc3cccnc3C)cn2)cc1C [Compound I-485, 6-[4-[Acetyl-[(3,3-difluorocyclobutyl)methyl]amino]-3-methyl-phenyl]-N-[(2-methyl-3-pyridyl)methyl]pyridine-3-carboxamide]"
3.01 nM,C (C = ≥66% inhibition),–,"CC(C)N(C(=O)C(F)F)c1ccc(-c2ccc(C(=O)NCc3cccnc3)cn2)cc1Cl [Compound I-611, 6-[3-chloro-4-[(2,2-difluoroacetyl)-isopropyl-amino]phenyl]-N-(3-pyridylmethyl)pyridine-3-carboxamide]"
1830 nM,A (A = <33% inhibition),–,"COC(=O)NCCC(=O)N(C)c1ccc(-c2ccc(C(=O)NCc3cccnc3C)cn2)cc1C [Compound I-501, Methyl N-[3-[N,2-dimethyl-4-[5-[(2-methyl-3-pyridyl)methylcarbamoyl]-2-pyridyl]anilino]-3-oxo-propyl]carbamate]"
351 nM,B (B = ≥33 to <66% inhibition),–,"CCc1cc(-c2ccc(C(=O)NCc3cccnc3)cn2)ccc1N(C)C(C)=O [Compound I-605, 6-[4-[Acetyl(methyl)amino]-3-ethyl-phenyl]-N-(3-pyridylmethyl)pyridine-3-carboxamide]"
2440 nM,A (A = <33% inhibition),–,"CC(=O)N(CC1CC(F)(F)C1)c1ccc(-c2ccc(C(=O)NCc3cccnc3C)cn2)cc1 [Compound I-517, 6-[4-[Acetyl-[(3,3-difluorocyclobutyl)methyl]amino]phenyl]-N-[(2-methyl-3-pyridyl)methyl]pyridine-3-carboxamide]"
1830 nM,A (A = <33% inhibition),–,"CCOC(=O)NCCC(=O)N(C)c1ccc(-c2ccc(C(=O)NCc3cccnc3C)cn2)cc1C [Compound I-491, Ethyl N-[3-[N,2-dimethyl-4-[5-[(2-methyl-3-pyridyl)methylcarbamoyl]-2-pyridyl]anilino]-3-oxo-propyl]carbamate]"
2280 nM,A (A = <33% inhibition),–,"CC(=O)N(CC1CC1)c1ccc(-c2ccc(C(=O)NCc3cccnc3C)cn2)cc1 [Compound I-500, 6-[4-[Acetyl(cyclopropylmethyl)amino]phenyl]-N-[(2-methyl-3-pyridyl)methyl]pyridine-3-carboxamide]"
21.1 nM,C (C = ≥66% inhibition),–,"CCCN(C(C)=O)c1ccc(-c2ccc(C(=O)NCc3cccnc3)cn2)cc1Cl [Compound I-606, 6-[4-[Acetyl(propyl)amino]-3-chloro-phenyl]-N-(3-pyridylmethyl)pyridine-3-carboxamide]"
150 nM,B (B = ≥33 to <66% inhibition),–,"CC(=O)N(C)c1ccc(-c2ccc(C(=O)NCc3cccnc3)cn2)cc1C(F)(F)F [Compound I-658, 6-[4-[Acetyl(methyl)amino]-3-(trifluoromethyl)phenyl]-N-(3-pyridylmethyl)pyridine-3-carboxamide]"
4380 nM,A (A = <33% inhibition),–,"CC(=O)N(c1ccc(-c2ccc(C(=O)NCc3cccnc3C)cn2)cc1C)C(C)C [Compound I-512, 6-[4-[Acetyl(isopropyl)amino]-3-methyl-phenyl]-N-[(2-methyl-3-pyridyl)methyl]pyridine-3-carboxamide]"
23.7 nM,C (C = ≥66% inhibition),–,"CC(=O)N(c1ccc(-c2ccc(C(=O)NCc3cccnc3)cn2)cc1F)C(C)C [Compound I-626, 6-[4-[Acetyl(isopropyl)amino]-3-fluoro-phenyl]-N-(3-pyridylmethyl)pyridine-3-carboxamide]"
137 nM,C (C = ≥66% inhibition),–,"CC(=O)N(c1ccc(-c2ccc(C(=O)NCc3cccnc3)cc2)cc1F)C(C)C [Compound I-630, 4-[4-[Acetyl(isopropyl)amino]-3-fluoro-phenyl]-N-(3-pyridylmethyl)benzamide]"
33 nM,B (B = ≥33 to <66% inhibition),–,"CC(=O)N(CCC(F)(F)F)c1ccc(-c2ccc(C(=O)NCc3cccnc3)cn2)cc1Cl [Compound I-604, 6-[4-[Acetyl(3,3,3-trifluoropropyl)amino]-3-chloro-phenyl]-N-(3-pyridylmethyl)pyridine-3-carboxamide]"
4.53 nM,C (C = ≥66% inhibition),–,"Cc1cc(-c2ccc(C(=O)NCc3cccnc3)cn2)ccc1N(C(=O)C(F)F)C(C)C [Compound I-595, 6-[4-[(2,2-Difluoroacetyl)-isopropyl-amino]-3-methyl-phenyl]-N-(3-pyridylmethyl)pyridine-3-carboxamide]"
261 nM,A (A = <33% inhibition),–,"CC(=O)N(CC1CC1)c1ccc(-c2ccc(C(=O)Nc3ccn4ccnc4c3)cn2)cc1Cl [Compound I-687, 6-[4-[Acetyl(cyclopropylmethyl)amino]-3-chloro-phenyl]-N-imidazo[1,2-a]pyridin-7-yl-pyridine-3-carboxamide]"
